The kinase profiling compilation of Christmann-Franck et al. (2016)
Values joined by “and” are separate entries in the source; they are usually repeats but may differ in a detail not shown here. Identical values can stand only once.

What was measured:
Assay in all cases: radiometric filter-binding kinase assay
[1] = target: DYRK1A (human) (UniProt Q13627)
[2] = target: MAPK8 (human) (UniProt P45983)
[3] = target: PLK1 (human) (UniProt P53350)
[4] = target: HIPK3 (human) (UniProt Q9H422)
[5] = target: MAP3K7 TAB1 (human) (UniProt Q15750+O43318)
[6] = target: STK11 CAB39 STRADA (human) (UniProt Q9Y376+Q7RTN6+Q15831)
[7] = target: PIM1 (human) (UniProt P11309)
[8] = target: PDPK1 (human) (UniProt O15530); details: compound 1.0 µM
[9] = target: DCLK2 (human) (UniProt Q8N568)
[10] = target: MKNK2 (human) (UniProt Q9HBH9)
Chain of MKNK2 (human) (Q9HBH9 whole entry, looked up): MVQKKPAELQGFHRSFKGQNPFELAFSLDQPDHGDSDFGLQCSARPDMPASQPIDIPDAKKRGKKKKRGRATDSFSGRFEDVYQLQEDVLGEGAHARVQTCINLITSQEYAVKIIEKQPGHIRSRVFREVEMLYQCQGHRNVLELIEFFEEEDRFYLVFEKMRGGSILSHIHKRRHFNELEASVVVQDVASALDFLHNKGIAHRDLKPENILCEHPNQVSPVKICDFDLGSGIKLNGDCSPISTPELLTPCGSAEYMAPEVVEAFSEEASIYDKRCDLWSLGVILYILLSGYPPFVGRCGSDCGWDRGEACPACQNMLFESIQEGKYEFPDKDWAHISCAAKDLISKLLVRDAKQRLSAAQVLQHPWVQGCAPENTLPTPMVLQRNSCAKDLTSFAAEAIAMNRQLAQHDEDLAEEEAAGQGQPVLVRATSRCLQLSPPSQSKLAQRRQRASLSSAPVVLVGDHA

[11] = target: EPHB3 (human) (UniProt P54753)
[12] = target: MAP3K9 (human) (UniProt P80192)
[13] = target: IGF1R (human) (UniProt P08069)
[14] = target: AURKB (human) (UniProt Q96GD4)
Chain of AURKB (human) (Q96GD4 whole entry, looked up): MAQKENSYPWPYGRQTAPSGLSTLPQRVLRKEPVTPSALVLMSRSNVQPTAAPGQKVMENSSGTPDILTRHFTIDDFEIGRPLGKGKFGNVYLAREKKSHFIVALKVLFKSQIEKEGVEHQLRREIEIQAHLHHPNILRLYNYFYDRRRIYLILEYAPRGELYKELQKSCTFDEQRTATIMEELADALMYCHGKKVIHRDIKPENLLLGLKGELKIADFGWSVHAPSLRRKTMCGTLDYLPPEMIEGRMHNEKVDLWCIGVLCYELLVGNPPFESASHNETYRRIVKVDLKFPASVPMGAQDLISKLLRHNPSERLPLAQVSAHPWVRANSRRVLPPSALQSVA

[15] = target: CDK2 CCNA2 (human) (UniProt P20248+P24941)
[16] = target: NUAK1 (human) (UniProt O60285)
Chain of NUAK1 (human) (O60285 whole entry, looked up): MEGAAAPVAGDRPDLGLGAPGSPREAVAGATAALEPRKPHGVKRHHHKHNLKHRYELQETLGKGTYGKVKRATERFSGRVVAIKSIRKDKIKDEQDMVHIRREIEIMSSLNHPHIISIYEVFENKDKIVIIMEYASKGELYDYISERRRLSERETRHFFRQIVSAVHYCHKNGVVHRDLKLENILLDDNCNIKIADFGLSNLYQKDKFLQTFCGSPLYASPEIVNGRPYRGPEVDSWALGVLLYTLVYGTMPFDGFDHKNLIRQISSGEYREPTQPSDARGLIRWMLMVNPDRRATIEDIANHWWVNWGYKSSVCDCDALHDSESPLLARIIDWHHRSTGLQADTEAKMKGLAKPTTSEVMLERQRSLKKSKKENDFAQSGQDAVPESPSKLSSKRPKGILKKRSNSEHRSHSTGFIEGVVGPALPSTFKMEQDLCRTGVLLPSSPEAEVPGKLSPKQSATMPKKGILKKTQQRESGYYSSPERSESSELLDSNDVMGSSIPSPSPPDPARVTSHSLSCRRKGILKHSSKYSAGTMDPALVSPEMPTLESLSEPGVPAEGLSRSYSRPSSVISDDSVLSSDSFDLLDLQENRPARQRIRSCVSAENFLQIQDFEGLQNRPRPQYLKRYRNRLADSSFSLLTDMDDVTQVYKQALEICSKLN

[17] = target: BTK (human) (UniProt Q06187)
[18] = tested on: PAK2 (human), Q13177 [T402E]
[19] = target: MARK1 (human) (UniProt Q9P0L2)
[20] = target: MST4 (human) (UniProt Q9P289)
Chain of MST4 (human) (Q9P289 whole entry, looked up): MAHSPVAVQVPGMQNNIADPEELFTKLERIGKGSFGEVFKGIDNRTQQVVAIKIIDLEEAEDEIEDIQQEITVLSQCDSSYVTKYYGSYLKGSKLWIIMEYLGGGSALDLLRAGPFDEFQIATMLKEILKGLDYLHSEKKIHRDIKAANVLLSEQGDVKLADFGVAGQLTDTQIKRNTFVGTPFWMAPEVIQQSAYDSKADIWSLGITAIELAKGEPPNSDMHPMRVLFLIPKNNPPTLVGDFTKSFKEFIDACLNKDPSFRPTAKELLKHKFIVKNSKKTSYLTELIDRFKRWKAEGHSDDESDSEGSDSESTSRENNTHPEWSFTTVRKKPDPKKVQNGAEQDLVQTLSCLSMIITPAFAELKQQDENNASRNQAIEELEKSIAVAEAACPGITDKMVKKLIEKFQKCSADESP

[21] = tested on: AKT1 (human), P31749 [S473D]
[22] = target: DAPK1 (human) (UniProt P53355)
[23] = target: PAK7 (human) (UniProt Q9P286)
Chain of PAK7 (human) (Q9P286 whole entry, looked up): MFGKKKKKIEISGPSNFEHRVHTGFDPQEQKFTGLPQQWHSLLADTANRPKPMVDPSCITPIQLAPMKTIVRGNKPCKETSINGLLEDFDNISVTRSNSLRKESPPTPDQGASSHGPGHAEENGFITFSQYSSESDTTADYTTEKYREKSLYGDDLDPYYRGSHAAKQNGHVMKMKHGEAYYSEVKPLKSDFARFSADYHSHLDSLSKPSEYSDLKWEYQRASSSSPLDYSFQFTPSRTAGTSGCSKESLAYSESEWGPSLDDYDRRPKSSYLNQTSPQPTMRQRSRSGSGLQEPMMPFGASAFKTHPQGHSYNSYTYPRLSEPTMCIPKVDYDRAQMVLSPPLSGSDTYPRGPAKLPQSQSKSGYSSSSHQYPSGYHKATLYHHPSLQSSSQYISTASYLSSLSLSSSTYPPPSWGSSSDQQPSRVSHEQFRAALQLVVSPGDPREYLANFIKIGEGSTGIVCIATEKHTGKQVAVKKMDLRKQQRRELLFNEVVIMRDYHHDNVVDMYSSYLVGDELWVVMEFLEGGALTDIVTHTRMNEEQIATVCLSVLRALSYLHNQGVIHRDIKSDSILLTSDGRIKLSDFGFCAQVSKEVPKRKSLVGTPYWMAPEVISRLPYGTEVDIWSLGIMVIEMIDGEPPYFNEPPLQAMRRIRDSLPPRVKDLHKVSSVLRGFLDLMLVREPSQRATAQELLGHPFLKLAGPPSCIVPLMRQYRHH

[24] = target: RPS6KA1 KD1 KD2 (human) (UniProt Q15418)
[25] = target: MAP2K1 (human) (UniProt Q02750)
[26] = target: GCK (human) (UniProt Q12851)
Chain of GCK (human) (Q12851 whole entry, looked up): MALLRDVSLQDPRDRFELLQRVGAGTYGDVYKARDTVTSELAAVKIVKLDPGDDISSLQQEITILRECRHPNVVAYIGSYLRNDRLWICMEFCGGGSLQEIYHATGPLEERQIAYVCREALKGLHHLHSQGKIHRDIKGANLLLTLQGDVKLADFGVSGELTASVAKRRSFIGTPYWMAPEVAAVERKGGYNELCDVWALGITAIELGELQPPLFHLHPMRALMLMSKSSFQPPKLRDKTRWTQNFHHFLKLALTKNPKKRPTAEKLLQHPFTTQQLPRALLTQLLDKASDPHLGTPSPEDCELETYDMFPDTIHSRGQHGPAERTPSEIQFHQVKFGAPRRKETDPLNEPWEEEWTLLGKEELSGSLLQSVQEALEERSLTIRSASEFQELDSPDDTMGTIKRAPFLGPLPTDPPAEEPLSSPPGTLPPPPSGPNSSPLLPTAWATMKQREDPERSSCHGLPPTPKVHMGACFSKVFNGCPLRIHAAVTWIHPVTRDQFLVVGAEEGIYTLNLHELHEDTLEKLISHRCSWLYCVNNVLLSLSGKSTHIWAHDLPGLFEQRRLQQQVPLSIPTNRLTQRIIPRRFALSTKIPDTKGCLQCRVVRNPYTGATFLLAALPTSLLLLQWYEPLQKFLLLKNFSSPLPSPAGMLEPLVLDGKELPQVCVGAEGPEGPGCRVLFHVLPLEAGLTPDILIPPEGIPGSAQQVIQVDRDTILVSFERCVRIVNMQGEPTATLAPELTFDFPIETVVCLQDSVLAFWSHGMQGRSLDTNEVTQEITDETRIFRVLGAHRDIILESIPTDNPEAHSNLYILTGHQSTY

[27] = target: MAPK9 (human) (UniProt P45984)
[28] = tested on: AKT2 (human), P31751 [S474D]
Chain of AKT2 (human), P31751 [S474D] (P31751 whole entry S474D, looked up): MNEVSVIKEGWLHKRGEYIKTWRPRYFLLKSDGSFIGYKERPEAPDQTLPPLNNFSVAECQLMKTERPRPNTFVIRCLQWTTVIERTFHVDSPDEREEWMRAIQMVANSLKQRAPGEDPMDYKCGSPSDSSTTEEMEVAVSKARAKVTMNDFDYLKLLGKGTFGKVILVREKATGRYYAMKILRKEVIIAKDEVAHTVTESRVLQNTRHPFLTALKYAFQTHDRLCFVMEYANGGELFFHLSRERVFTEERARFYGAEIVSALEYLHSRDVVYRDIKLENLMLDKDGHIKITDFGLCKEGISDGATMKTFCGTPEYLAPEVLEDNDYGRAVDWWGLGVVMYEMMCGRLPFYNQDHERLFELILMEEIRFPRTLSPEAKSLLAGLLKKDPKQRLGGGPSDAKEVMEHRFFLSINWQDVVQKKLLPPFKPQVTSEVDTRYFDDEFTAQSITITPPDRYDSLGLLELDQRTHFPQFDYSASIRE

[29] = target: CHEK1 (human) (UniProt O14757)
Chain of CHEK1 (human) (O14757 whole entry, looked up): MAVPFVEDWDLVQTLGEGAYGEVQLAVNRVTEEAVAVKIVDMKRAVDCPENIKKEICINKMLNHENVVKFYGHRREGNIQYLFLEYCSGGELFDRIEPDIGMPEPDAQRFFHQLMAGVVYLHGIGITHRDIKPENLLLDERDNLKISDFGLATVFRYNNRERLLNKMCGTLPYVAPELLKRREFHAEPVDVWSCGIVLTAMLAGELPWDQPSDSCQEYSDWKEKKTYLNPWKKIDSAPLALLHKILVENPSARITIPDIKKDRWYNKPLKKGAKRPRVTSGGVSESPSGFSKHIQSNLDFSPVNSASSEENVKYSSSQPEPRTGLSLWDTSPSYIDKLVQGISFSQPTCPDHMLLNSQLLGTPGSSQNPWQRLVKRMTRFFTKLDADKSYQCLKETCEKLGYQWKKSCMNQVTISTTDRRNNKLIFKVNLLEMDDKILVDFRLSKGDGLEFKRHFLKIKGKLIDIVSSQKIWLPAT

[30] = tested on: ROCK2 (rat); details: accession and sequence are those of the human protein
[31] = target: MAPK3 (human) (UniProt P27361)
[32] = tested on: SGK1 (human), O00141 [S422D]
[33] = target: PRKCZ (human) (UniProt Q05513)

Chain of PLK1 (human) (P53350 whole entry, looked up): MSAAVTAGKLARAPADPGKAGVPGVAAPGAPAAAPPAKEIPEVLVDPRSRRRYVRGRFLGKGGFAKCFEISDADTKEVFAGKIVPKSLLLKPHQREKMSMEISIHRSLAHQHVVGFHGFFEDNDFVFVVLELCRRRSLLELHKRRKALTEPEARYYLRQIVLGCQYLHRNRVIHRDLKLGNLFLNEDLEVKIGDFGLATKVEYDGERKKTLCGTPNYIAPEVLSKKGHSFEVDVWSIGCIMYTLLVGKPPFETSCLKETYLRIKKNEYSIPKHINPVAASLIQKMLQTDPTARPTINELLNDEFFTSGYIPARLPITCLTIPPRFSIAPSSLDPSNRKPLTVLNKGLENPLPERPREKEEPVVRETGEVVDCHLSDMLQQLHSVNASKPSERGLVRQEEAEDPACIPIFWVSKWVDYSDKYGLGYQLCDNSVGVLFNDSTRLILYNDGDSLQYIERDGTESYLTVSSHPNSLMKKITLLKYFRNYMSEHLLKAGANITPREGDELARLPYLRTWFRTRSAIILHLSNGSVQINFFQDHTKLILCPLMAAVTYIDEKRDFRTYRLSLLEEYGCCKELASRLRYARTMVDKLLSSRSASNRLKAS

`COc1cc(C(=O)N2CCC(N3CCN(C)CC3)CC2)ccc1Nc1ncc2c(n1)N(C)c1ccccc1C(=O)N2C` was tested, and the residual activity ([1]; compound 1.0 µM) was 87%, the residual activity ([1]; compound 10.0 µM) was 95% and the residual activity ([2]; compound 1.0 µM) was 85%. The residual activity ([2]; compound 10.0 µM) was 96%, the IC50 [3] was over 100 µM and the residual activity ([3]; compound 1.0 µM) was 73%. The residual activity ([3]; compound 10.0 µM) was 35%, the residual activity ([4]; compound 1.0 µM) was 90% and the residual activity ([4]; compound 10.0 µM) was 102%. For the same compound, the residual activity ([5]; compound 1.0 µM) was 85%, the residual activity ([5]; compound 10.0 µM) was 82% and the residual activity ([6]; compound 1.0 µM) was 78%. The residual activity ([6]; compound 10.0 µM) was 78%, the residual activity ([7]; compound 1.0 µM) was 94% and the residual activity ([7]; compound 10.0 µM) was 87%. The residual activity [8] was 68% and 74%, the IC50 [9] was 0.21 µM and the IC50 [10] was 7.2 µM. The residual activity ([10]; compound 1.0 µM) was 72%, the residual activity ([10]; compound 10.0 µM) was 22% and the residual activity ([11]; compound 1.0 µM) was 71%. For the same compound, the residual activity ([11]; compound 10.0 µM) was 71%, the residual activity ([12]; compound 1.0 µM) was 87% and the residual activity ([12]; compound 10.0 µM) was 96%. It also gave a residual activity ([13]; compound 1.0 µM) of 107%, a residual activity ([13]; compound 10.0 µM) of 90% and an IC50 [14] of 1.1 µM. It also gave a residual activity ([14]; compound 1.0 µM) of 64%, a residual activity ([14]; compound 10.0 µM) of 28% and a residual activity ([15]; compound 1.0 µM) of 84%. The residual activity ([15]; compound 10.0 µM) was 79%, the IC50 [16] was 5 µM and the residual activity ([16]; compound 1.0 µM) was 50%. For the same compound, the residual activity ([16]; compound 10.0 µM) was 19%, the residual activity ([17]; compound 1.0 µM) was 95% and the residual activity ([17]; compound 10.0 µM) was 75%. For the same compound, the residual activity ([18]; compound 1.0 µM) was 97%, the residual activity ([18]; compound 10.0 µM) was 110% and the residual activity ([19]; compound 1.0 µM) was 89%. The residual activity ([19]; compound 10.0 µM) was 93%, the residual activity ([20]; compound 1.0 µM) was 90% and the residual activity ([20]; compound 10.0 µM) was 87%. The residual activity ([21]; compound 1.0 µM) was 71%, the residual activity ([21]; compound 10.0 µM) was 81% and the residual activity ([22]; compound 1.0 µM) was 85%. The residual activity ([22]; compound 10.0 µM) was 77%, the residual activity ([23]; compound 1.0 µM) was 84% and the residual activity ([23]; compound 10.0 µM) was 89%. For the same compound, the residual activity ([24]; compound 1.0 µM) was 97%, the residual activity ([24]; compound 10.0 µM) was 367% and the residual activity ([25]; compound 1.0 µM) was 94%. It also gave a residual activity ([25]; compound 10.0 µM) of 86%, a residual activity ([26]; compound 1.0 µM) of 93% and a residual activity ([26]; compound 10.0 µM) of 99%. For the same compound, the residual activity ([27]; compound 1.0 µM) was 79%, the residual activity ([27]; compound 10.0 µM) was 98% and the residual activity ([28]; compound 1.0 µM) was 93%. For the same compound, the residual activity ([28]; compound 10.0 µM) was 79%, the residual activity ([29]; compound 1.0 µM) was 82% and the residual activity ([29]; compound 10.0 µM) was 96%. It also gave a residual activity ([30]; compound 1.0 µM) of 84%, a residual activity ([30]; compound 10.0 µM) of 84% and a residual activity ([31]; compound 1.0 µM) of 105%. It also gave a residual activity ([31]; compound 10.0 µM) of 104%, a residual activity ([32]; compound 1.0 µM) of 75% and a residual activity ([32]; compound 10.0 µM) of 89%. It also gave a residual activity ([33]; compound 1.0 µM) of 94% and a residual activity ([33]; compound 10.0 µM) of 104%.
